Laboratory results taken from patent publication US20230329236A1, “HERBICIDAL PYRIMIDINE DERIVATIVES” (MoA Technology Limited, priority 2020, published 2023).

Key:
[1] = tested on: Digitaria sanguinalis (DIGSA); experiment: Post-emergence glasshouse test, visual injury, DIGSA; assay type: in vivo; details: Table 4, post-emergence, 14±1 days post application
Method: (§1) Seeds of a variety of test species are grown in a sandy loam soil mixture, Lolium multiflorum (LOLMU), Amaranthus retroflexus (AMARE), Echinochloa crus-gaffi (ECHCG), Veronica persica (VERPE), Glycine max (GLXMA), Oryza sativa (ORYSA), Zea mays (ZEAMX), spring wheat (TRZAS), Ipomoea hederacea (IPOHE), Ipomoea purpurea (PHBPU), Stellaria media (STEME), Solanum nigrum (SOLNI), Digitaria sanguinalis (DIGSA), Setaria italica (SETIT), Alopecurus myosuroides (ALOMY) and Avena fatua (AVEFA).
(§2) After sowing, at growth stage BBCH 12-14 (post-emergence), the plants are sprayed with an aqueous spray solution derived from the formulation of the technical active ingredient in acetone/water (50:50) solution containing 0.5% Tween 20 (polyoxyethlyene sorbitan monolaureate, CAS RN 9005-64-5). The test compounds are applied at the required concentration of active ingredient in g/ha. The test plants are then grown in a glasshouse under controlled environmental conditions and watered regularly as required. After 14±1 days post application (for post-emergence test), the test is evaluated by assessing the percentage damage caused to the plants in comparison with the untreated plots. The biological activities for post-emergence testing are shown below (Table 3 and Table 4) as a % visual injury.

Avena fatua (AVEFA) = experiment: Post-emergence glasshouse test, visual injury, AVEFA; assay type: in vivo; details: Table 4, post-emergence, 14±1 days post application
Method: as §1, §2

Setaria italica (SETIT) = experiment: Post-emergence glasshouse test, visual injury, SETIT; assay type: in vivo; details: Table 4, post-emergence, 14±1 days post application
Method: as §1, §2

spring wheat (TRZAS) = experiment: Post-emergence glasshouse test, visual injury, TRZAS; assay type: in vivo; details: Table 4, post-emergence, 14±1 days post application
Method: as §1, §2

Stellaria media (STEME) = experiment: Post-emergence glasshouse test, visual injury, STEME; assay type: in vivo; details: Table 4, post-emergence, 14±1 days post application
Method: as §1, §2

Glycine max (GLXMA) = experiment: Post-emergence glasshouse test, visual injury, GLXMA; assay type: in vivo; details: Table 4, post-emergence, 14±1 days post application
Method: as §1, §2

Solanum nigrum (SOLNI) = experiment: Post-emergence glasshouse test, visual injury, SOLNI; assay type: in vivo; details: Table 4, post-emergence, 14±1 days post application
Method: as §1, §2

Ipomoea purpurea (PHBPU) = experiment: Post-emergence glasshouse test, visual injury, PHBPU; assay type: in vivo; details: Table 4, post-emergence, 14±1 days post application
Method: as §1, §2

[2] = tested on: Alopecurus myosuroides (ALOMY); experiment: Post-emergence glasshouse test, visual injury, ALOMY; assay type: in vivo; details: Table 4, post-emergence, 14±1 days post application
Method: as §1, §2

[3] = tested on: Echinochloa crus-gaffi (ECHCG); experiment: Post-emergence glasshouse test, visual injury, ECHCG; assay type: in vivo, Echinochloa crus-galli; details: 336 h, 14±1 days post application
In short: (§3)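 Plants raised in sandy loam soil were sprayed post-emergence at BBCH 12-14 with compound formulated in acetone/water (50:50) containing 0.5% Tween 20, applied at set rates in g/ha. After 14±1 days in a controlled glasshouse, damage was scored visually as percent injury versus untreated plots.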

[4] = tested on: Amaranthus retroflexus (AMARE); experiment: Post-emergence glasshouse test, visual injury, AMARE; assay type: in vivo; details: 336 h, 14±1 days post application
In short: as §3

[5] = tested on: Ipomoea hederacea (IPOHE); experiment: Post-emergence glasshouse test, visual injury, IPOHE; assay type: in vivo; details: Table 4, post-emergence, 14±1 days post application
Method: as §1, §2

Veronica persica (VERPE) = experiment: Post-emergence glasshouse test, visual injury, VERPE; assay type: in vivo; details: 336 h, 14±1 days post application
In short: as §3

Zea mays (ZEAMX) = experiment: Post-emergence glasshouse test, visual injury, ZEAMX; assay type: in vivo; details: Table 4, post-emergence, 14±1 days post application
Method: as §1, §2

Oryza sativa (ORYSA) = experiment: Post-emergence glasshouse test, visual injury, ORYSA; assay type: in vivo; details: Table 4, post-emergence, 14±1 days post application
Method: as §1, §2

[6] = tested on: Lolium multiflorum (LOLMU); experiment: Post-emergence glasshouse test, visual injury, LOLMU; assay type: in vivo; details: 336 h, 14±1 days post application
In short: as §3

[7] = Table 4, post-emergence, 125 g/ha
[8] = Table 4, post-emergence, 250 g/ha
[9] = Table 4, post-emergence, 1000 g/ha

Cc1cc(-c2cnc(NC3CCCC3)nc2C(C)C)on1 [Compound 45]
DIGSA % visual injury ([1]; 125 g/ha): 80%
DIGSA % visual injury ([1]; 250 g/ha): 70%
DIGSA % visual injury ([1]; 500 g/ha): 95%
DIGSA % visual injury ([1]; 1000 g/ha): 98%
AVEFA % visual injury (Avena fatua (AVEFA); 125 g/ha): 0%
AVEFA % visual injury (Avena fatua (AVEFA); 250 g/ha): 40%
AVEFA % visual injury (Avena fatua (AVEFA); 500 g/ha): 60%
AVEFA % visual injury (Avena fatua (AVEFA); 1000 g/ha): 70%
SETIT % visual injury (Setaria italica (SETIT); 125 g/ha): 50%
SETIT % visual injury (Setaria italica (SETIT); 250 g/ha): 80%
SETIT % visual injury (Setaria italica (SETIT); 500 g/ha): 95%
SETIT % visual injury (Setaria italica (SETIT); 1000 g/ha): 95%
TRZAS % visual injury (spring wheat (TRZAS); 125 g/ha): 0%
TRZAS % visual injury (spring wheat (TRZAS); 250 g/ha): 30%
TRZAS % visual injury (spring wheat (TRZAS); 500 g/ha): 30%
TRZAS % visual injury (spring wheat (TRZAS); 1000 g/ha): 40%
STEME % visual injury (Stellaria media (STEME); 125 g/ha): 100%
STEME % visual injury (Stellaria media (STEME); 250 g/ha): 100%
STEME % visual injury (Stellaria media (STEME); 500 g/ha): 100%
STEME % visual injury (Stellaria media (STEME); 1000 g/ha): 100%
GLXMA % visual injury (Glycine max (GLXMA); 125 g/ha): 20%
GLXMA % visual injury (Glycine max (GLXMA); 250 g/ha): 50%
GLXMA % visual injury (Glycine max (GLXMA); 500 g/ha): 40%
GLXMA % visual injury (Glycine max (GLXMA); 1000 g/ha): 50%
SOLNI % visual injury (Solanum nigrum (SOLNI); 125 g/ha): 98%
SOLNI % visual injury (Solanum nigrum (SOLNI); 250 g/ha): 100%
SOLNI % visual injury (Solanum nigrum (SOLNI); 500 g/ha): 100%
SOLNI % visual injury (Solanum nigrum (SOLNI); 1000 g/ha): 100%
PHBPU % visual injury (Ipomoea purpurea (PHBPU); 125 g/ha): 50%
PHBPU % visual injury (Ipomoea purpurea (PHBPU); 250 g/ha): 70%
PHBPU % visual injury (Ipomoea purpurea (PHBPU); 500 g/ha): 70%
PHBPU % visual injury (Ipomoea purpurea (PHBPU); 1000 g/ha): 70%
ALOMY % visual injury ([2]; 125 g/ha): 50%
ALOMY % visual injury ([2]; 250 g/ha): 70%
ALOMY % visual injury ([2]; 500 g/ha): 50%
ALOMY % visual injury ([2]; 1000 g/ha): 80%
pest or weed control at 500 g/ha ([3]; Table 3, post-emergence): 100%
pest or weed control at 125 g/ha [3, 7]: 70%
pest or weed control at 250 g/ha [3, 8]: 80%
pest or weed control at 500 g/ha ([3]; Table 4, post-emergence): 80%
pest or weed control at 1000 g/ha [3, 9]: 90%
pest or weed control at 500 g/ha ([4]; Table 3, post-emergence): 100%
pest or weed control at 125 g/ha [4, 7]: 95%
pest or weed control at 250 g/ha [4, 8]: 90%
pest or weed control at 500 g/ha ([4]; Table 4, post-emergence): 100%
pest or weed control at 1000 g/ha [4, 9]: 100%
IPOHE % visual injury ([5]; 125 g/ha): 0%
IPOHE % visual injury ([5]; 250 g/ha): 50%
IPOHE % visual injury ([5]; 500 g/ha): 40%
IPOHE % visual injury ([5]; 1000 g/ha): 60%
pest or weed control at 500 g/ha (Veronica persica (VERPE); Table 3, post-emergence): 100%
pest or weed control at 125 g/ha (Veronica persica (VERPE); [7]): 100%
pest or weed control at 250 g/ha (Veronica persica (VERPE); [8]): 100%
pest or weed control at 500 g/ha (Veronica persica (VERPE); Table 4, post-emergence): 100%
pest or weed control at 1000 g/ha (Veronica persica (VERPE); [9]): 100%
ZEAMX % visual injury (Zea mays (ZEAMX); 125 g/ha): 0%
ZEAMX % visual injury (Zea mays (ZEAMX); 250 g/ha): 0%
ZEAMX % visual injury (Zea mays (ZEAMX); 500 g/ha): 70%
ZEAMX % visual injury (Zea mays (ZEAMX); 1000 g/ha): 40%
ORYSA % visual injury (Oryza sativa (ORYSA); 125 g/ha): 50%
ORYSA % visual injury (Oryza sativa (ORYSA); 250 g/ha): 99%
ORYSA % visual injury (Oryza sativa (ORYSA); 500 g/ha): 90%
ORYSA % visual injury (Oryza sativa (ORYSA); 1000 g/ha): 80%
pest or weed control at 500 g/ha ([6]; Table 3, post-emergence): 70%
pest or weed control at 125 g/ha [6, 7]: 40%
pest or weed control at 250 g/ha [6, 8]: 60%
pest or weed control at 500 g/ha ([6]; Table 4, post-emergence): 90%
pest or weed control at 1000 g/ha [6, 9]: 100%
